This is an account of results in ChEMBL document CHEMBL1811837 (Bioorg Med Chem, 2011).

In experiment [1] the target is T1, D(2) dopamine receptor (Homo sapiens, UniProt P14416). The experiment can be described thus: biochemical.
Another experiment has as its target T2, D(4) dopamine receptor (Homo sapiens, UniProt P21917).
T2 sequence (P21917 whole entry): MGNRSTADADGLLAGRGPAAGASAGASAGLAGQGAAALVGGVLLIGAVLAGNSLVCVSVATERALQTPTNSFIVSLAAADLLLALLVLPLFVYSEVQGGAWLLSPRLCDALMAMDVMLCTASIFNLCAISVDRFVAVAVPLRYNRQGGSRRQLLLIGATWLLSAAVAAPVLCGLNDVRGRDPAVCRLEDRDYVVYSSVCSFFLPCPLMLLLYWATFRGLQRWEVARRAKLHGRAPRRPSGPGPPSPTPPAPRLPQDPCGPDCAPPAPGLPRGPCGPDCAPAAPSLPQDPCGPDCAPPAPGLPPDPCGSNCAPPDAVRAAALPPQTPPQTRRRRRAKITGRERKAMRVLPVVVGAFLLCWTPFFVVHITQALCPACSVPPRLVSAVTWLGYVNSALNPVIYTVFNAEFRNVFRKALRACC
The experiment can be described thus: biochemical.

The target of experiment [2] is T3, D(3) dopamine receptor (Homo sapiens, UniProt P35462). The experiment can be described thus: biochemical.
T3 sequence (P35462 whole entry): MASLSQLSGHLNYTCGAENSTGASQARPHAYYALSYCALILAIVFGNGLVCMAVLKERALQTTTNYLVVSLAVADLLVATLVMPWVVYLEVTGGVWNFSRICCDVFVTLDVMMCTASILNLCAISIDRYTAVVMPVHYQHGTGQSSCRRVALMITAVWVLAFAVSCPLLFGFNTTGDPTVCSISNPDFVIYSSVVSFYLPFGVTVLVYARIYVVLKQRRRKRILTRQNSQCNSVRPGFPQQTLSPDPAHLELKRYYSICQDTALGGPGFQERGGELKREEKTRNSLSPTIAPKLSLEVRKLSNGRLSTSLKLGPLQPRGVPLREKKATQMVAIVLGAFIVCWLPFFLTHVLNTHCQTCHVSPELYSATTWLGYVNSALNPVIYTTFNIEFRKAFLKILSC
Experiment [3] has as its target Sigma non-opioid intracellular receptor 1 (Cavia porcellus, UniProt Q60492).
Description: Displacement of [3H](+)-pentazocine from guinea pig brain sigma-1 receptor after 90 mins by liquid scintillation counter
For experiment [4], the target named is T1, D(2) dopamine receptor. The experiment can be described thus: Partial agonist activity at human recombinant D2L receptor expressed in HEK cells assessed as inhibition of forskolin-induced [3H]cAMP production at 10 times Ki after 20 mins by […]. The format is functional, cell-based. The conditions noted are these: HEK293.
In experiment [5] the target is T3, D(3) dopamine receptor. The experiment can be described thus: Partial agonist activity at human recombinant D3 receptor expressed in HEK cells assessed as inhibition of forskolin-induced [3H]cAMP production at 10 times Ki after 20 mins by […]. It is filed as functional, cell-based. The conditions noted are these: HEK293.
In experiment [6] the target is T1, D(2) dopamine receptor. The experiment can be described thus: Intrinsic efficacy at human recombinant D2L receptor expressed in HEK cells assessed as assessed as inhibition of forskolin-induced [3H]cAMP production after 20 mins by […]. Also on record: scale not given: the % may be the effect or the level left. The conditions noted are these: HEK293. The format is functional, cell-based.

Experiment [7] addresses T1, D(2) dopamine receptor.

The source made the active and inactive calls. The rule behind the calls is not given here.

Sigma non-opioid intracellular receptor 1, sequence (Q60492 whole entry): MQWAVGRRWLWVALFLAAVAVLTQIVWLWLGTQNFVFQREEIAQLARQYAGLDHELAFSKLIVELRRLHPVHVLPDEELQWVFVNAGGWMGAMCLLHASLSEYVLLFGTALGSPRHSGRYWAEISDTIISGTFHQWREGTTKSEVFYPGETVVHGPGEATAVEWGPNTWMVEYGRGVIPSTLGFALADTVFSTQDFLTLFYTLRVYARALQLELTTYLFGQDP
T1 sequence (P14416 whole entry): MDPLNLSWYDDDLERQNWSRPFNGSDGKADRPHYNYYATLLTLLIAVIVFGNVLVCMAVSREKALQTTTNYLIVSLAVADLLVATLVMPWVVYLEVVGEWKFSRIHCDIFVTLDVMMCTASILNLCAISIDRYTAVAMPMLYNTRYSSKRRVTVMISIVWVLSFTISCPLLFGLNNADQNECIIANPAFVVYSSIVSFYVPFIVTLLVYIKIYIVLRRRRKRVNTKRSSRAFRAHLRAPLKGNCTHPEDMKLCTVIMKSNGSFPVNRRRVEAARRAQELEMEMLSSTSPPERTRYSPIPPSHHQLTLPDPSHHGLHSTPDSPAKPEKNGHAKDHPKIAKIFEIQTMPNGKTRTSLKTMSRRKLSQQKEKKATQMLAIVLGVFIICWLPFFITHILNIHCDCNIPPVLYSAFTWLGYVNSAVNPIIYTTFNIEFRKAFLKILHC

On to `O=C1CCc2ccc(OCCCCN3CCC(n4c(=O)[nH]c5ccccc54)CC3)cc2N1`, for which the Ki amounted to 145 nM at D(2) dopamine receptor [1], 1030 nM at D(4) dopamine receptor and 879 nM on D(3) dopamine receptor [2].
In the case of `COc1cc(C)ccc1N1CCN(CCCCOc2ccc3c(c2)NC(=O)CC3)CC1`, the inhibitory constant (Ki) was found to be 4.6 nM on D(2) dopamine receptor [1], 377 nM in experiment [3], 27.2 nM at D(4) dopamine receptor and 251 nM on D(3) dopamine receptor [2].
As to `COc1ccc(N2CCN(CCCCOc3ccc4c(c3)NC(=O)CC4)CC2)c(OC)c1`, the Ki on D(2) dopamine receptor [1] amounted to 25.3 nM; in experiment [3], 620 nM; at D(4) dopamine receptor, 286 nM; on D(3) dopamine receptor [2], 785 nM.
For `O=C1CCc2ccc(OCCCCN3CCC(n4c(=O)[nH]c5cc(Cl)ccc54)CC3)cc2N1`, the results for the Ki on D(2) dopamine receptor [1], at D(4) dopamine receptor and on D(3) dopamine receptor [2] were 309 nM, 1350 nM and 574 nM, respectively.
`COc1ccccc1N1CCN(CCCCOc2ccc3ccc(=O)[nH]c3c2)CC1`: the Ki at D(2) dopamine receptor [1] worked out at 0.14 nM; in experiment [3] it was 2630 nM; on D(4) dopamine receptor it was 30.1 nM; at D(3) dopamine receptor [2] it was 5.4 nM.
Take `O=C1CCc2ccc(OCCCCN3CCN(c4ccccc4OCCF)CC3)cc2N1`: the Ki on D(2) dopamine receptor [1] stood at 0.26 nM; in experiment [3], 13600 nM; at D(4) dopamine receptor, 185 nM; at D(3) dopamine receptor [2], 13.5 nM. The result on D(2) dopamine receptor [4] and on D(3) dopamine receptor [5] was Active. In addition, the Activity on D(2) dopamine receptor [6] turned out to be 16%.
For `COc1ccccc1N1CCN(CCCOc2ccc3ccc(=O)[nH]c3c2)CC1`, the Ki stood at 2.6 nM on D(2) dopamine receptor [1], 2600 nM in experiment [3], 52.7 nM at D(4) dopamine receptor and 5.7 nM at D(3) dopamine receptor [2].
Consider `CN1CN(c2ccccc2)C2(CCN(CCCCOc3ccc4c(c3)NC(=O)CC4)CC2)C1=O`, for which the Ki at D(2) dopamine receptor [1] came out at 611 nM; on D(4) dopamine receptor, 865 nM; at D(3) dopamine receptor [2], 427 nM.
For the compound `COc1ccccc1N1CCN(CCCOc2ccc3c(c2)NC(=O)CC3)CC1`, the Ki on D(2) dopamine receptor [7] is 4.8 nM; in experiment [3] it was 759 nM; at D(4) dopamine receptor, 38.5 nM; at D(3) dopamine receptor [2], 7.4 nM.
`COc1ccccc1N1CCN(CCCCCOc2ccc3c(c2)NC(=O)CC3)CC1` registered a Ki in experiment [3] of 1350 nM.
In the case of `COc1ccc(N2CCN(CCCCOc3ccc4c(c3)NC(=O)CC4)CC2)cc1`, the Ki at D(2) dopamine receptor [1] is 102 nM; in experiment [3], 170 nM; at D(4) dopamine receptor it was 359 nM; at D(3) dopamine receptor [2], 930 nM.
For `COc1ccccc1N1CCN(CCCCCOc2ccc3ccc(=O)[nH]c3c2)CC1`, the Ki at D(2) dopamine receptor [1] worked out at 7.4 nM; in experiment [3] it was 1610 nM; at D(4) dopamine receptor, 201 nM; on D(3) dopamine receptor [2], 3.8 nM.
Consider `O=c1ccc2ccc(OCCCCN3CCN(c4ccccc4OCCF)CC3)cc2[nH]1`, for which the Ki came out at 0.07 nM on D(2) dopamine receptor [1], 20900 nM in experiment [3], 31.9 nM at D(4) dopamine receptor and 2.7 nM on D(3) dopamine receptor [2].
The like results for `O=C1CCc2ccc(OCCCCN3CCC(O)(c4ccc(Cl)cc4)CC3)cc2N1` were, in that order, 2600 nM, 417 nM, 1310 nM and 1540 nM.
In experiment [3], `COc1ccccc1N1CCN(CCCCOc2ccc3c(c2)NC(=O)CC3)CC1` had a Ki of 1180 nM.
